{"source": "patent US10583103B2", "about": "“Method of treating heart failure with preserved ejection fraction with probenecid” (University Of Cincinnati, priority 2013, dated 2020)", "key": {"[1]": {"test_system": "thoracic aortae of wild type mice", "test": "Vascular smooth muscle reactivity in isolated aorta (DMT myograph), wild type", "set-up": "species or system mouse", "conditions": "for EC50: Mus musculus, phenylephrine pre-contracted, read-out: EC50 for the relaxing effect"}, "[2]": {"test_system": "thoracic aortae of TRPV2−/− mice", "test": "Vascular smooth muscle reactivity in isolated aorta (DMT myograph), TRPV2 knockout", "set-up": "species or system mouse; developed tension: dose or concentration left out as unconfirmed", "conditions": "for EC50: Mus musculus, phenylephrine pre-contracted, read-out: EC50 for the relaxing effect"}, "WT mice": {"test_system": "WT mice", "test": "Invasive cardiac hemodynamics in intact anesthetized mice (LV pressure development), wild type", "format": "in vivo, mouse", "procedure": "(§1) All animal procedures were performed with the approval of the Institutional Animal Care and Use Committee (IACUC) of the University of Cincinnati and in accordance with the Guide for the Care and Use of Laboratory Animals (NIH, revised 1996). All wild type (WT) mice (B6129SF2/J F2 and C57BL6J, Jackson laboratories) and TRPV2^−/− mice (breeding pairs provided by Dr. M. Caterina, John's Hopkins, Baltimore, Md.) were males at 12-16 weeks of age (REF). Prior to experiments, mice were maintained on normal rodent chow and water ad libitum, and on a 14 hr/10 hr light/dark cycle (6 AM to 8 PM).\nMeasurements of left ventricular performance and regional blood flow were performed in separate groups of WT and TRPV2^−/− mice as previously described {Lorenz, 2008#1}. Briefly, mice were anesthetized with an intraperitoneal injection of ketamine (50 μg/gBW) and inactin (thiobutabarbital, 100 μg/gBW, Sigma, MA). A tracheotomy was performed (PE-90), and body temperature was monitored and maintained with a feedback-controlled heating table. The right femoral artery was cannulated with fluid-filled polyethylene tubing for measurement of blood pressure and connected to a low compliance pressure transducer (COBE Cardiovascular, Arvada, Colo.). The right femoral vein was cannulated for delivery of drugs. A high fidelity, 1.2F Scisense pressure catheter (Scisense, London, ON, Canada) was inserted into the right carotid artery and advanced into the left ventricle to monitor cardiac performance. ECG leads were placed on the right and left arms, and left leg and connected to a BIOAmp (ADInstruments, Colorado Springs, Colo.). For carotid blood flow measurements, the left carotid artery was isolated and fitted with a 0.5-PSB perivascular flow probe connected to a TS420 flow meter (Transonic Systems, Ithaca, N.Y.). Pressure, flow, and ECG signals were recorded and analyzed using a PowerLab system (ADInstruments). Hemodynamic measurements were taken at the basal state and after the administration of 30 and 100 μg/g doses of probenecid i.v., with 5 minutes between each dose (100 μg/μl delivered as 0.3 and 1.0 μl/gBW bolus). Measurements were taken from the final 30-40 seconds of each dosage period. Maximum dP/dt (dP/dtmax) and dP/dt at 40 mmHg of developed pressure (dP/dt40) were calculated from the first derivative of the pressure waveforms. Cerebral vascular resistance (CVR) was calculated from recorded channels of mean arterial pressure and mean cerebral blood flow (CVR=MAP/CBF).\nStatistical analysis was performed by analysis of variance (ANOVA) using either a single factor within-subjects design, or a two- or three-factor mixed design with repeated measures as appropriate. Individual contrasts were used to compare group effects and interactions when needed, and the Tukey post-hoc test was used to compare individual means where appropriate (SigmaStat v3.5, Point Richmond, Calif.). Data are presented as means±S.E.M., and differences were regarded as significant at P<0.05."}, "TRPV2−/− mice": {"test_system": "TRPV2−/− mice", "test": "Invasive cardiac hemodynamics in intact anesthetized mice (LV pressure development), TRPV2 knockout", "format": "in vivo, mouse", "conditions": "probenecid 30 and 100 μg/g i.v. bolus", "procedure": "as §1\nMeasurements of left ventricular performance and regional blood flow were performed in separate groups of WT and TRPV2^−/− mice as previously described {Lorenz, 2008#1}. […] A tracheotomy was performed (PE-90), and body temperature was monitored and maintained with a feedback-controlled heating table. […] Pressure, flow, and ECG signals were recorded and analyzed using a PowerLab system (ADInstruments). […] Maximum dP/dt (dP/dtmax) and dP/dt at 40 mmHg of developed pressure (dP/dt40) were calculated from the first derivative of the pressure waveforms. Cerebral vascular resistance (CVR) was calculated from recorded channels of mean arterial pressure and mean cerebral blood flow (CVR=MAP/CBF). […]"}, "isolated aortae": {"test_system": "isolated aortae", "test": "Vasoconstrictor effect of probenecid in isolated aortae (cumulative concentration-force relationship)", "set-up": "species or system mouse"}, "TRPV2": {"target": "T1, TRPV2 (Homo sapiens, UniProt Q9Y5S1)", "T1 sequence (Q9Y5S1 1-764)": "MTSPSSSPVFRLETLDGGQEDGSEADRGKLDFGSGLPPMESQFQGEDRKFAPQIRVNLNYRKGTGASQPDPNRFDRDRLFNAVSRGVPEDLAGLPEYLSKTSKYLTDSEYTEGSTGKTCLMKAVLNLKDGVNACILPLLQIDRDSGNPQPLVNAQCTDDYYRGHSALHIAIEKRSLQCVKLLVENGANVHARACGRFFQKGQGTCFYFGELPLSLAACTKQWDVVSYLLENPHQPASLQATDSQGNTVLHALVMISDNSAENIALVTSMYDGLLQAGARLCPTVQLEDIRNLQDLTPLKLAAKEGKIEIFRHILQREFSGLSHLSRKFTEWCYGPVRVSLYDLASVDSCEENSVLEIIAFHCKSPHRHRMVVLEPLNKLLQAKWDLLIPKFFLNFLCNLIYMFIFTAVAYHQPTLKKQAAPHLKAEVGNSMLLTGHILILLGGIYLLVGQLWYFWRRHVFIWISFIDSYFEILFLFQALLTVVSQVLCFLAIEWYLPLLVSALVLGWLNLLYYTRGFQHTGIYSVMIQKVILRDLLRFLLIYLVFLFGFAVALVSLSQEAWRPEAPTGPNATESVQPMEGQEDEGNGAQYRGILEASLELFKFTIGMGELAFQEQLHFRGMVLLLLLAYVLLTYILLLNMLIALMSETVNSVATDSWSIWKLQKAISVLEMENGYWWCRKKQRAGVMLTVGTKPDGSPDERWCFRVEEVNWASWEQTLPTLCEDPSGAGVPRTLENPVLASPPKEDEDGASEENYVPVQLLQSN", "conditions": "cited from earlier work"}, "[3]": {"test_system": "isolated WT cardiomyocytes", "conditions": "putatively through TRPV2 stimulation; cited from earlier work"}, "[4]": {"conditions": "endothelium-denuded (−E), pre-contracted with 3 mM phenylephrine"}}, "note": "Where two headings read alike, the source gives them in different places."}
{"smiles": "CNC[C@H](O)c1cccc(O)c1", "note": "[phenylephrine]", "values": [{"measurement": "maximal developed tension in response to phenylephrine", "setting": "[1]; endothelium-denuded (−E), n=8", "result": "5.99±0.74", "unit": "mN"}, {"measurement": "maximal developed tension in response to phenylephrine", "setting": "[1]; intact endothelium (+E)", "result": "1.45±0.12", "unit": "mN"}, {"measurement": "maximal developed tension in response to phenylephrine", "setting": "[2]; endothelium-denuded (−E), n=8", "result": "6.07±0.55", "unit": "mN"}, {"measurement": "maximal developed tension in response to phenylephrine", "setting": "[2]; intact endothelium (+E)", "result": "1.75±0.25", "unit": "mN"}]}
{"smiles": "CCCN(CCC)S(=O)(=O)c1ccc(C(=O)O)cc1", "note": "[probenecid]", "values": [{"measurement": "lusitropy", "setting": "WT mice; WT mice, low (30 mg/kg) and high (100 mg/kg) doses", "result": "increased lusitropy"}, {"measurement": "contractile function (LV dP/dtmax, dP/dt40)", "setting": "WT mice; WT mice, probenecid 30 and 100 μg/g i.v. bolus", "result": "robust stimulation of contractile function"}, {"measurement": "time to maximal effect on LV dP/dt", "setting": "WT mice; after i.v. bolus administration", "result": "maximal within one minute"}, {"measurement": "duration of stable effect on LV dP/dt", "setting": "WT mice; after i.v. bolus administration, at the time of reported measurement", "result": "at least 5 minutes"}, {"measurement": "cardiac relaxation and diastolic function", "setting": "WT mice; rodents, summary statement", "result": "improved cardiac relaxation and improved diastolic function"}, {"measurement": "contractile function (LV dP/dtmax, dP/dt40), effect relative to WT", "setting": "TRPV2−/− mice", "result": "markedly attenuated"}, {"measurement": "EC50", "setting": "[1]; intact endothelium (+E)", "result": "670 ± 210", "unit": "µM"}, {"measurement": "EC50", "setting": "[1]; without endothelium (−E)", "result": "4560 ± 340", "unit": "µM"}, {"measurement": "dilatory response, concentration threshold", "setting": "[1]; [4]", "result": "no significant dilatory response until a concentration of 1 mM"}, {"measurement": "developed tension at 10 mM probenecid", "setting": "[1]; endothelium-denuded (−E), pre-contracted with phenylephrine, 10 mM", "result": "about 25 % of maximum"}, {"measurement": "EC50", "setting": "[2]; intact endothelium (+E)", "result": "520 ± 110", "unit": "µM"}, {"measurement": "EC50", "setting": "[2]; without endothelium (−E)", "result": "4590 ± 520", "unit": "µM"}, {"measurement": "dilatory response, concentration threshold", "setting": "[2]; [4]", "result": "no significant dilatory response until a concentration of 1 mM"}, {"measurement": "developed tension", "setting": "[2]; endothelium-denuded (−E), pre-contracted with phenylephrine", "result": "about 25 % of maximum"}, {"measurement": "vasoactive effect", "setting": "isolated aortae; low and high doses, even in deendothelialized vessels (discussion)", "result": "no significant vasoactive effect"}, {"measurement": "vasoconstrictor effect (force production)", "setting": "isolated aortae; with or without intact endothelium, concentrations as high as 10 mM", "result": "no evidence was found of increased force production"}, {"measurement": "TRPV2 agonist activity", "setting": "TRPV2", "result": "selective agonist of TRPV2"}, {"measurement": "cytosolic Ca2+ concentrations and Ca2+ sparks", "setting": "[3]", "result": "increases cytosolic Ca^2+ concentrations and increased Ca^2+ sparks"}]}
